From patent publication US10251408B2, “Catechin function enhancement method” (KYUSHU UNIVERSITY, NATIONAL UNIVERSITY CORPORATION, priority 2014, dated 2019) come the findings set out here.

For test [1], the system named is Human multiple myeloma cell line U266. Nature of the test: Cancer cell death induction, viable cells by trypan blue assay (96-well plate, FIG. 9). The class given is cell-based. To be noted: 96 hours, in combination with EGCG, EGCG 3″Me or green tea extract. On the procedure:
(§1) Human multiple myeloma cell line U266 was subcultured and maintained in RPMI 1640 medium supplemented with 10% FCS under conditions of 37° C. and water vapor-saturated 5% CO2. The cells were maintained in the logarithmic growth phase. The RPMI 1640 medium used for culture was prepared as follows: per liter of ultrapure water, RPMI 1640 medium (10.4 g), HEPES (2.38 g), injectable penicillin G potassium (100,000 units), streptomycin sulfate injectable (100 mg) and NaHCO3 (2.0 g) were suspended and then filter-sterilized.
The lemon peel extract used in the experiment was prepared as follows. Peels (100 g) were collected with a grater from 6 lemons and 100% EtOH (100 mL) was added thereto, followed by mashing with a mortar. The mashed mixture was further strained through gauze to remove fibers and then filtered by gravity using a #1 paper filter and a funnel to remove precipitates, followed by centrifugation at 12000×g to collect the supernatant. The resulting ethanol extract of lemon was evaporated with an evaporator to volatilize the solvent, thereby obtaining an ethanol-extracted lemon fraction. This ethanol-extracted lemon fraction was dissolved again in DMSO to give a lemon extract. […] After culture, viable cells were counted by trypan blue assay.
To evaluate the effect of combined use of EGCG or a structural analog thereof or an EGCG-containing naturally occurring product and eriodictyol or a structural analog thereof or an eriodictyol-containing naturally occurring product, human multiple myeloma cell line U266 was adjusted to 5×10^4 cells/mL and seeded in a 96-well plate, and then cultured for 96 hours in the presence of EGCG and eriodictyol added at a final concentration of 5 μM each. After culture for 96 hours, viable cells were counted by trypan blue assay.

Test [2] shares this test system. Nature of the test: Anticancer effect, viable cells by trypan blue assay (24-well plates, FIG. 14-19). The class given is cell-based. To be noted: 5 μM each, 96 hours; for enhancement of the anticancer effect (viable cells) of EGCG: combined with EGCG; for enhancement of the anticancer effect (viable cells) of EGCG 3″Me: combined with EGCG 3″Me; for enhancement of the anticancer effect (viable cells) of GCG: combined with GCG (gallocatechin gallate). As for the experimental part:
as §1, with “fetal bovine serum (FCS)” for “FCS”, “filter-sterilized. Then, the RPMI 1640 medium was supplemented with FCS and used for cell culture. Per liter of ultrapure water, NaCl (8.0 g), KCl (0.2 g), Na2HPO4 (1.15 g) and KH2PO4 (0.2 g) were dissolved to prepare PBS, which was then sterilized in an autoclave.” for “filter-sterilized.”
Eriodictyol and structural analogs thereof, i.e., naringenin and hesperetin, as well as glycosides thereof, i.e., eriocitrin, naringin and hesperidin were each adjusted to 5 mM with 100% dimethyl sulfoxide (DMSO) and stored at −30° C. EGCG and (−)-gallocatechin gallate (GCG) were each adjusted to 5 mM with ultrapure water and stored at −30° C. EGCG 3″Me was adjusted to 5 mM with 10% DMSO dH2O and stored at −30° C.
U266 adjusted to 5×10^4 cells/mL in RPMI 1640 containing 1% FCS, SOD (5 U/mL) and catalase (200 U/mL) was seeded in 24-well plates and cultured for 96 hours in the presence of EGCG and analogs thereof or eriodictyol and analogs thereof added at a final concentration of 5 μM each. After culture, viable cells were counted by trypan blue assay.
For statistical processing of the experimental results, Student's test was used and P<0.05 was considered statistically significant in comparison with control data in the vehicle group.

For test [3], the system named is tail suspension test-induced disuse amyotrophy in mice. Nature of the test: Tail suspension test-induced disuse amyotrophy (quadriceps femoris weight). The class given is in vivo, mouse. To be noted: C57BL/6J mice; 5 mg/kg intragastric once a day; tail suspension for 10 days from day 7; FIG. 4. As for the experimental part:
Male C57BL/6J mice at 12 weeks of age were divided into 5 groups such that the average body weight was equal in all groups, i.e., a GR (ground) group, a TS (tail suspension) group, an EGCG group, an eriodictyol group, and an EGCG+eriodictyol group. From the beginning of grouping, the GR and TS groups received physiological saline, the EGCG group received EGCG and the eriodictyol group received eriodictyol (5 mg/kg) by intragastric administration, while the EGCG+eriodictyol group received EGCG and eriodictyol (5 mg/kg) by intragastric administration through a sonde. For 7 days from the beginning of grouping, all the groups were kept under normal conditions, and the TS, EGCG, eriodictyol, and EGCG+eriodictyol groups were then subjected to a tail suspension test. After the tail suspension test for 10 days (at 17 days after initiation of the experiment), all the mice were sacrificed by abdominal aortic puncture under isoflurane anesthesia, and the quadriceps femoris was excised from each mouse and measured for its weight. Each sample was administered daily throughout the experimental period. […] At 10 days after starting the tail suspension test, the mice were sacrificed by abdominal aortic puncture under isoflurane anesthesia, and the quadriceps femoris was excised from each mouse and measured for its weight.

Structures are written as SMILES.

Regarding `COc1ccc([C@@H]2CC(=O)c3c(O)cc(O)cc3O2)cc1O` [hesperetin], the “enhancement of the anticancer effect (viable cells) of EGCG, EGCG 3″Me or a green tea extract” value in test [1] was “remarkably enhance the anticancer effect”. Further, in test [2], the “enhancement of the anticancer effect (viable cells) of EGCG” value is listed as “remarkably enhance the anticancer effect”, the “enhancement of the anticancer effect (viable cells) of EGCG 3″Me” value (from here on “enhancement … of EGCG 3″Me”) is given as “remarkably enhance the anticancer effect” and the “enhancement of the anticancer effect (viable cells) of GCG” value (“enhancement … of GCG” below) is listed as “remarkably enhance the anticancer effect”.

Consider `O=C(O[C@@H]1Cc2c(O)cc(O)cc2O[C@@H]1c1cc(O)c(O)c(O)c1)c1cc(O)c(O)c(O)c1` [EGCG, epigallocatechin gallate], for which the “effect on amyotrophy (quadriceps femoris weight)” value in test [3] is recorded as “no effect on amyotrophy”.

For `C[C@@H]1O[C@@H](OC[C@H]2O[C@@H](Oc3cc(O)c4c(c3)O[C@H](c3ccc(O)c(O)c3)CC4=O)[C@H](O)[C@@H](O)[C@@H]2O)[C@H](O)[C@H](O)[C@H]1O` [eriocitrin], in test [2], the “enhancement of the anticancer effect (viable cells) of EGCG” value is “remarkably enhance the anticancer effect”, the “enhancement … of EGCG 3″Me” value is on record as “remarkably enhance the anticancer effect” and the “enhancement … of GCG” value is listed as “remarkably enhance the anticancer effect”.

As to `O=C1C[C@@H](c2ccc(O)cc2)Oc2cc(O)cc(O)c21` [naringenin], the “enhancement of the anticancer effect (viable cells) of EGCG, EGCG 3″Me or a green tea extract” value in test [1] is recorded as “remarkably enhance the anticancer effect”. In test [2], the “enhancement of the anticancer effect (viable cells) of EGCG” value is “remarkably enhance the anticancer effect”, the “enhancement … of EGCG 3″Me” value is “remarkably enhance the anticancer effect” and the “enhancement … of GCG” value is listed as “remarkably enhance the anticancer effect”.

As for `C[C@@H]1O[C@@H](O[C@H]2[C@H](Oc3cc(O)c4c(c3)O[C@H](c3ccc(O)cc3)CC4=O)O[C@H](CO)[C@@H](O)[C@@H]2O)[C@H](O)[C@H](O)[C@H]1O` [naringin], the “enhancement of the anticancer effect (viable cells) of EGCG” value in test [2] is on record as “remarkably enhance the anticancer effect”.

Regarding `COc1ccc([C@@H]2CC(=O)c3c(O)cc(O[C@@H]4O[C@H](CO[C@@H]5O[C@@H](C)[C@H](O)[C@@H](O)[C@H]5O)[C@@H](O)[C@H](O)[C@H]4O)cc3O2)cc1O` [hesperidin], in test [2], the “enhancement of the anticancer effect (viable cells) of EGCG” value is given as “remarkably enhance the anticancer effect”, the “enhancement … of EGCG 3″Me” value was “remarkably enhance the anticancer effect” and the “enhancement … of GCG” value was “remarkably enhance the anticancer effect”.
